Assay results taken from paper PMC11137198 (Frontiers in Pharmacology, 2024).
Values joined by “and” are separate entries in the source; they are usually repeats but may differ in a detail not shown here. Equal entries are not always repeated. Where two headings read alike, the source gives them in different places. Marks after values point to notes of the source that are not given here.

Key:
HAG [1] = biological target: T1, HAG (Homo sapiens, UniProt P02763); format: physicochemical; conditions: HAG-bound; for weight of τ1 component / weight of τ2 component / τ2 / τ1: two-exponential fit; for τ2: long component; for τ1: short component; for λmax (fluorescence): 1:1 (10 μM)
T1 construct: α1-acid glycoprotein from human plasma (HAG) were purchased from Sigma-Aldrich; purchased Sigma-Aldrich; host or cells: human plasma
Procedure: (§1) Steady-state fluorescence spectra were recorded on an Edinburgh FS5 spectrofluorometer, provided with a monochromator in the wavelength range of 200–900 nm using an excitation wavelength of 340 nm at room temperature. Measurements on drug@protein complexes were performed in aerated PBS of 1:1 M ratio mixtures at 10 µM. The absorbance of the samples at the excitation wavelength was kept below 0.1. The fluorescence quantum yields were determined using anthracene in ethanol as reference ([Montalti et al., 2006]).
(§2) Time-resolved fluorescence measurements were performed with an EasyLife X system containing a sample compartment composed of an automated peltier cuvette holder to control the temperature at 24°C, a pulsed LED excitation source and a lifetime detector. The employed LED excitation source was 340 nm, with emission filter of WG370. The fluorescence lifetimes (τF) were obtained upon fitting the decay traces by a non-linear fitting/deconvolution procedure F(t) = Σa i ·exp(-t/τ i ) by means of a one- or two-exponential function, depending on the investigated system. All spectroscopic measurements were done in 10 × 10 mm^2 quartz cuvettes at room temperature.
The insets show the normalized spectra. For ligand@protein complexes, solutions were at 1:1 M ratio (10 μM).

HAG [2] = test system: HAG; design: species or system human; conditions: binding constant within HAG, PBS
Excerpt: (§3) To calculate the K B values by means of UV absorption spectroscopy, the same Eq. 1 has been applied but using A instead of F.
Competing interactions on mixtures containing the drug and a metabolite in the presence of HAG confirmed the consistency of the determined binding constants.

[3] = design: method as in Tamarit et al., 2021; Tamarit et al., 2022; conditions: cyclohexane, ref Tamarit et al., 2021, 2022; cited from earlier work
HSA and HAG = assay: Competing interactions in an equimolar mixture of the two proteins (fluorescence); format: binding, human; conditions: fluorescence emission, λexc = 340 nm
HSA [4] = biological target: T2, HSA (Homo sapiens, UniProt P02768); assay: Binding constant (K B) by modified Scatchard analysis from UV absorption and fluorescence; conditions: binding constant within HSA, PBS
T2 construct: purchased Sigma-Aldrich
Procedure: as §3
An additional point to address is the strength of interaction of the drug and its two metabolites within HSA, since it is key for their transport to the specific targets and for their toxicological activity. […] To this end, a modified Scatchard analysis was performed (Supplementary Figures S6–S8).

cellular milieu = test system: cellular milieu; design: method as in El Ouardi et al., 2023; conditions: UVA light, biological media; ref El Ouardi et al., 2023; cited from earlier work
HSA [5] = biological target: T2, HSA; conditions: HSA-bound, λexc = 340 nm, PBS; ref 36 (Tamarit et al., 2022); cited from earlier work
[6] = Fluorescence of free ligand in organic solvents or PBS; format: physicochemical
Procedure: as §1, §2
An important point to discuss is the low fluorescence yield value of GFT-M2 within the protein cavities (ϕF ∼ 0.01) compared with that obtained in cyclohexane (ϕF ∼ 0.13). […] It is worth to mention that this is a dynamic process that lowers τF values ([Tamarit et al., 2021]; [Tamarit et al., 2022]). With the aim of investigating this possibility for GFT-M2, fluorescence measurements were performed in the non-polar solvent toluene in the presence of increasing amounts of Tyr and Trp (due to solubility requirements, the N-acetyl methyl ester amino acid derivatives, namely, NAc-TyrMe or NAc-TrpMe, were used). […] It is worth to mention that using either Tyr or Trp as quenchers, a new band with λmax ∼ 490 nm arose at high amino acid concentrations (insets of Figure 3); this is attributed to emission from phenolate-like species involving interaction between hydrogen-bonded GFT-M2 and Tyr (or Trp) in the ground state. However, and as discussed above, these species have not been observed in the supramolecular GFT-M2@HSA complex, since LE states predominate. Therefore, it would exist an additional deactivation route for ^1GFT-M2* within the protein, which would be strongly affected by the conformational arrangement of the metabolite in the binding sites (see the discussion on MD simulations).

HSA [7] = biological target: T2, HSA; assay: Steady-state and time-resolved fluorescence of ligand@HSA complexes; format: physicochemical; conditions: HSA-bound
Procedure: as §1, §2
FIGURE 2 (A) Fluorescence spectra for GFT-M2 in PBS (gray) and for GFT-M2@HSA (green). […] Measurements were performed at λexc = 340 nm in PBS; for ligand@HSA complexes, solutions were at 1:1 M ratio (10 μM).

[8] = λexc = 340 nm, PBS, 1:1 (10 μM)

T2 sequence (P02768 25-609): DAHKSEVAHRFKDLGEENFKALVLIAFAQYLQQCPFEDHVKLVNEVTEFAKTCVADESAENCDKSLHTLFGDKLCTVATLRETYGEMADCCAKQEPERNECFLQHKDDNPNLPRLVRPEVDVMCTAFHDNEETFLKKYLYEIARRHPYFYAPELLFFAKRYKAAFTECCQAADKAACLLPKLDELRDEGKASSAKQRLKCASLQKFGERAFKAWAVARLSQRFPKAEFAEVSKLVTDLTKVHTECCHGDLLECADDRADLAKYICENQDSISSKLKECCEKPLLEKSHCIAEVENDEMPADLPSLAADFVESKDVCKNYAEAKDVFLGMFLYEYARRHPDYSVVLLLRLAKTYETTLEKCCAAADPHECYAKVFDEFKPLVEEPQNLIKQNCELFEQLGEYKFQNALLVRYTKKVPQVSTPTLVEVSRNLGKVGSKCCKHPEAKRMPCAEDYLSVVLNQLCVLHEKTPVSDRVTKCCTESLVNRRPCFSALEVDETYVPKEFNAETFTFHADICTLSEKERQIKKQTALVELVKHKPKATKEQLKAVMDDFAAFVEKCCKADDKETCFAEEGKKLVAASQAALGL
T1 sequence (P02763 19-201): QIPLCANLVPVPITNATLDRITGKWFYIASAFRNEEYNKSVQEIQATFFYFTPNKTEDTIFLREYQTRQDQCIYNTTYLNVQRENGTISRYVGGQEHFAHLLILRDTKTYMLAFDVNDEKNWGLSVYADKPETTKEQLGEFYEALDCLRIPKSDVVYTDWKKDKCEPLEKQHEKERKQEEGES

| SMILES | ϕF (HAG [1]; λexc = 340 nm, PBS) | K B (HAG [2]) | weight of τ1 component (HAG [1]) | weight of τ2 component (HAG [1]) | τ2 (HAG [1]) | τ1 (HAG [1]) | λmax (fluorescence) (HAG [1]; λexc = 340 nm, PBS) | K B (HSA [4]) | phototoxicity (cellular milieu) | other results |
| --- | --- | --- | --- | --- | --- | --- | --- | --- | --- | --- |
| COc1cc2ncnc(Nc3ccc(F)c(Cl)c3)c2cc1OCCCN1CCOCC1 [GFT, gefitinib, reference compound] | 0.03 | 1.2 × 10^5 M^-1 and 1.2 ± 0.08 × 10^5 M^-1 |  |  |  |  |  |  |  | τF (HAG [1]; λexc = 340 nm, PBS, one-exponential fit, or mean lifetime where marked d): 0.8 ns; ϕF [3]: ~0.19 |
| COc1cc2ncnc(Nc3ccc(F)c(Cl)c3)c2cc1O [GFT-M1, O-desmorpholinopropyl gefitinib] | 0.04 | 9.1 ± 0.32 × 10^4 M^-1 | 28% | 72% | ~3.1 ns | ~0.5 ns | ~442 nm | 1.2 ± 0.06 × 10^5 M^-1 | highest phototoxicity | relative affinity in equimolar mixture of HSA and HAG (HSA and HAG): higher affinity to HSA; τF (HSA [5]): 2.5 ^b ns; ϕF (HSA [5]): 0.15 ^b |
| Oc1cc2ncnc(Nc3ccc(F)c(Cl)c3)c2cc1OCCCN1CCOCC1 [GFT-M2, O-desmethyl gefitinib] | 0.03 | 1.5 × 10^5 M^-1 and 1.5 ± 0.05 × 10^5 M^-1 | 35% | 65% | 4.1 ns | 0.7 ns | ~446 nm | 1.8 ± 0.16 × 10^5 M^-1 | much less phototoxic | shoulder detected in the fluorescence spectrum (HAG [1]; λexc = 340 nm, PBS, value between brackets): ~388 nm; ϕF ([6]; cyclohexane): ~0.13; fluorescence maximum ([6]; free in the bulk solution (PBS), λexc = 340 nm): ca. 440 nm; fluorescence maximum λmax ([6]; non-polar solvents): ca. 390 nm; λmax of new band at high amino acid concentrations ([6]; toluene, Tyr or Trp as quenchers, phenolate-like species): ~490 nm; fluorescence lifetime of the LE singlet state ([6]; toluene, with NAc-TyrMe or NAc-TrpMe at molar ratios 1:50 to 1:300): ca. 2.42 ns; weight of τ1 component (HSA [7]; two-exponential fit): 75%; weight of τ2 component (HSA [7]; two-exponential fit): 25%; τ2 (HSA [7]; two-exponential fit, long component): 4.9 ns; τ1 (HSA [7]; two-exponential fit, short component): 0.6 ns; λmax (fluorescence) (HSA [7]; [8]): ~388 nm; ϕF (HSA [7]; [8]): ~0.01; τF (HSA [7]; λexc = 340 nm, PBS, mean lifetime <τF> = a1τ1 + a2τ2): 1.0^d ns |
